{"source": "patent US20120316199A1", "about": "“COMPOSITIONS AND METHODS FOR TREATING, CONTROLLING, REDUCING, OR AMELIORATING INFLAMMATORY PAIN” (priority 2011, published 2012)", "system": "intraocular pressure (IOP)", "experiment": "Intraocular pressure in New Zealand White rabbits, topical dosing four times daily", "format": "in vivo", "conditions": "for Intraocular Pressure, MEAN: A.M. readings", "experimental": "On Days 1-31, animals received daily topical doses of the appropriate test article into the right eye. Animals were dosed four times per day, with doses administered 2 hours apart. Doses were administered using a calibrated 50-μL pipette. The eyelids were held close for 10 seconds immediately following dosing. The time of each dose administration was recorded.\nIntraocular pressure (“IOP”) was determined for both eyes of each animal on Days 3, 5, 10, 12, 16, 18, 22, 24, 26, 30, and 32. IOP was evaluated with a Medtronic Solan, Model 30 classic pneumatonometer. Proparacaine hydrochloride 0.5% (1 drop) was delivered to each eye prior to IOP measurement. IOP was measured on Monday. Wednesday, and Friday of each week. A two-point diurnal curve was established: IOP was recorded at 8 a.m. and 12 p.m. on Day 3, and at 8 a.m. and 2 p.m. on later days, with a ±1 hour range for each of these times. The time of the measurements was recorded.\nDescriptive statistics were prepared for IOP data of each treatment group (left and right eyes separately) at each measurement interval. The statistics included the number of observations (“N”) mean, standard deviation (“STD”), and standard error (“SEM”). Statistical analyses were conducted on IOP results using Statistical Analysis Systems (SAS Institute. Inc., Cary, N.C. V8.0). Parameters were evaluated using analysis of variance/GLM Procedure followed by Tukey's Standardized Range Test (Tukey, 1985) for post hoc comparisons of group means. The level of significance was set at a probability of p<0.05 for all statistical procedures. Group IOP means were compared at each interval, with left and right eyes compared separately."}
{"smiles": "Cc1ccc2c(NC[C@](O)(CC(C)(C)c3cc(F)cc4c3OCC4)C(F)(F)F)cccc2n1", "note": "[BOL-303242-X, mapracorat]", "values": [{"measurement": "Differences in mean IOP versus BSS group", "setting": "BOL-303242-X groups B-D (10, 5, 1 mg/g), p<0.05", "value": "No statistically significant (p<0.05) differences"}, {"measurement": "Effect of daily dosing on IOP compared to daily dosing with dexamethasone", "setting": "BOL-303242-X suspensions 0.05, 0.25, 0.5 mg/dose, four times daily up to 31 days", "value": "did not increase IOP"}, {"measurement": "Course of mean IOP after treatment began", "setting": "left and right eyes, dexamethasone 0.1% (Group A), BOL-303242-X 10, 5, 1 mg/g (Groups B-D), four times daily", "value": "not seen"}, {"measurement": "Intraocular Pressure, MEAN", "setting": "treated right eyes, Day 3, 1 mg/g (Group D)", "value": 23.0, "unit": "mmHg"}, {"measurement": "Intraocular Pressure, MEAN", "setting": "treated right eyes, Day 3, 5 mg/g (Group C)", "value": 23.7, "unit": "mmHg"}, {"measurement": "Intraocular Pressure, MEAN", "setting": "treated right eyes, Day 3, 10 mg/g (Group B)", "value": 22.7, "unit": "mmHg"}, {"measurement": "Intraocular Pressure, MEAN", "setting": "treated right eyes, Day 5, 1 mg/g (Group D)", "value": 24.7, "unit": "mmHg"}, {"measurement": "Intraocular Pressure, MEAN", "setting": "treated right eyes, Day 5, 5 mg/g (Group C)", "value": 24.7, "unit": "mmHg"}, {"measurement": "Intraocular Pressure, MEAN", "setting": "treated right eyes, Day 5, 10 mg/g (Group B)", "value": 23.8, "unit": "mmHg"}, {"measurement": "Intraocular Pressure, MEAN", "setting": "treated right eyes, Day 10, 1 mg/g (Group D)", "value": 24.8, "unit": "mmHg"}, {"measurement": "Intraocular Pressure, MEAN", "setting": "treated right eyes, Day 10, 5 mg/g (Group C)", "value": 25.2, "unit": "mmHg"}, {"measurement": "Intraocular Pressure, MEAN", "setting": "treated right eyes, Day 10, 10 mg/g (Group B)", "value": 24.5, "unit": "mmHg"}, {"measurement": "Intraocular Pressure, MEAN", "setting": "treated right eyes, Day 12, 1 mg/g (Group D)", "value": 23.4, "unit": "mmHg"}, {"measurement": "Intraocular Pressure, MEAN", "setting": "treated right eyes, Day 12, 5 mg/g (Group C)", "value": 25.0, "unit": "mmHg"}, {"measurement": "Intraocular Pressure, MEAN", "setting": "treated right eyes, Day 12, 10 mg/g (Group B)", "value": 23.9, "unit": "mmHg"}, {"measurement": "Intraocular Pressure, MEAN", "setting": "treated right eyes, Day 16, 1 mg/g (Group D)", "value": 22.1, "unit": "mmHg"}, {"measurement": "Intraocular Pressure, MEAN", "setting": "treated right eyes, Day 16, 5 mg/g (Group C)", "value": 24.3, "unit": "mmHg"}, {"measurement": "Intraocular Pressure, MEAN", "setting": "treated right eyes, Day 16, 10 mg/g (Group B)", "value": 23.4, "unit": "mmHg"}, {"measurement": "Intraocular Pressure, MEAN", "setting": "treated right eyes, Day 18, 1 mg/g (Group D)", "value": 23.7, "unit": "mmHg"}, {"measurement": "Intraocular Pressure, MEAN", "setting": "treated right eyes, Day 18, 5 mg/g (Group C)", "value": 23.9, "unit": "mmHg"}, {"measurement": "Intraocular Pressure, MEAN", "setting": "treated right eyes, Day 18, 10 mg/g (Group B)", "value": 22.3, "unit": "mmHg"}, {"measurement": "Intraocular Pressure, MEAN", "setting": "treated right eyes, Day 22, 1 mg/g (Group D)", "value": 23.2, "unit": "mmHg"}, {"measurement": "Intraocular Pressure, MEAN", "setting": "treated right eyes, Day 22, 5 mg/g (Group C)", "value": 22.4, "unit": "mmHg"}, {"measurement": "Intraocular Pressure, MEAN", "setting": "treated right eyes, Day 22, 10 mg/g (Group B)", "value": 22.4, "unit": "mmHg"}, {"measurement": "Intraocular Pressure, MEAN", "setting": "treated right eyes, Day 24, 1 mg/g (Group D)", "value": 22.1, "unit": "mmHg"}, {"measurement": "Intraocular Pressure, MEAN", "setting": "treated right eyes, Day 24, 5 mg/g (Group C)", "value": 23.8, "unit": "mmHg"}, {"measurement": "Intraocular Pressure, MEAN", "setting": "treated right eyes, Day 24, 10 mg/g (Group B)", "value": 21.2, "unit": "mmHg"}, {"measurement": "Intraocular Pressure, MEAN", "setting": "treated right eyes, Day 26, 1 mg/g (Group D)", "value": 23.1, "unit": "mmHg"}, {"measurement": "Intraocular Pressure, MEAN", "setting": "treated right eyes, Day 26, 5 mg/g (Group C)", "value": 22.1, "unit": "mmHg"}, {"measurement": "Intraocular Pressure, MEAN", "setting": "treated right eyes, Day 26, 10 mg/g (Group B)", "value": 21.8, "unit": "mmHg"}, {"measurement": "Intraocular Pressure, MEAN", "setting": "treated right eyes, Day 30, 1 mg/g (Group D)", "value": 24.2, "unit": "mmHg"}, {"measurement": "Intraocular Pressure, MEAN", "setting": "treated right eyes, Day 30, 5 mg/g (Group C)", "value": 22.9, "unit": "mmHg"}, {"measurement": "Intraocular Pressure, MEAN", "setting": "treated right eyes, Day 30, 10 mg/g (Group B)", "value": 22.7, "unit": "mmHg"}, {"measurement": "Intraocular Pressure, MEAN", "setting": "treated right eyes, Day 32, 1 mg/g (Group D)", "value": 24.9, "unit": "mmHg"}, {"measurement": "Intraocular Pressure, MEAN", "setting": "treated right eyes, Day 32, 5 mg/g (Group C)", "value": 23.4, "unit": "mmHg"}, {"measurement": "Intraocular Pressure, MEAN", "setting": "treated right eyes, Day 32, 10 mg/g (Group B)", "value": 23.9, "unit": "mmHg"}, {"measurement": "Intraocular Pressure, MEAN", "setting": "treated right eyes, Pre-Study, 1 mg/g (Group D)", "value": 24.4, "unit": "mmHg"}, {"measurement": "Intraocular Pressure, MEAN", "setting": "treated right eyes, Pre-Study, 5 mg/g (Group C)", "value": 24.8, "unit": "mmHg"}, {"measurement": "Intraocular Pressure, MEAN", "setting": "treated right eyes, Pre-Study, 10 mg/g (Group B)", "value": 24.0, "unit": "mmHg"}, {"measurement": "Intraocular Pressure, MEAN", "setting": "untreated left eyes, Day 3, 1 mg/g (Group D)", "value": 23.5, "unit": "mmHg"}, {"measurement": "Intraocular Pressure, MEAN", "setting": "untreated left eyes, Day 3, 5 mg/g (Group C)", "value": 23.8, "unit": "mmHg"}, {"measurement": "Intraocular Pressure, MEAN", "setting": "untreated left eyes, Day 3, 10 mg/g (Group B)", "value": 23.3, "unit": "mmHg"}, {"measurement": "Intraocular Pressure, MEAN", "setting": "untreated left eyes, Day 5, 1 mg/g (Group D)", "value": 24.4, "unit": "mmHg"}, {"measurement": "Intraocular Pressure, MEAN", "setting": "untreated left eyes, Day 5, 5 mg/g (Group C)", "value": 24.4, "unit": "mmHg"}, {"measurement": "Intraocular Pressure, MEAN", "setting": "untreated left eyes, Day 5, 10 mg/g (Group B)", "value": 23.4, "unit": "mmHg"}, {"measurement": "Intraocular Pressure, MEAN", "setting": "untreated left eyes, Day 10, 1 mg/g (Group D)", "value": 24.5, "unit": "mmHg"}, {"measurement": "Intraocular Pressure, MEAN", "setting": "untreated left eyes, Day 10, 5 mg/g (Group C)", "value": 24.6, "unit": "mmHg"}, {"measurement": "Intraocular Pressure, MEAN", "setting": "untreated left eyes, Day 10, 10 mg/g (Group B)", "value": 24.0, "unit": "mmHg"}, {"measurement": "Intraocular Pressure, MEAN", "setting": "untreated left eyes, Day 12, 1 mg/g (Group D)", "value": 22.2, "unit": "mmHg"}, {"measurement": "Intraocular Pressure, MEAN", "setting": "untreated left eyes, Day 12, 5 mg/g (Group C)", "value": 23.8, "unit": "mmHg"}, {"measurement": "Intraocular Pressure, MEAN", "setting": "untreated left eyes, Day 12, 10 mg/g (Group B)", "value": 23.8, "unit": "mmHg"}, {"measurement": "Intraocular Pressure, MEAN", "setting": "untreated left eyes, Day 16, 1 mg/g (Group D)", "value": 21.6, "unit": "mmHg"}]}
